Test results published in the supplement of paper PMC4862054.

What was measured:
Experiment in all cases: normalised viability (% of control), CellTiter-Blue; higher = more viable cells (about 100 = DMSO control)
Conditions in all cases: incubation time: 72 h
[1] = tested on: BT-474
Experimental: (§1)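 DSRT, CellTiter-Blue viability, 72 h incubation. Signal is normalised to DMSO and benzethonium chloride controls. Value is the normalised response at dose 3.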

[2] = tested on: BT-549
Experimental: as §1

[3] = tested on: CAL-148
Experimental: as §1

[4] = tested on: CAL-85-1
Experimental: as §1

[5] = tested on: DU-4475
Experimental: as §1

[6] = tested on: HCC1143
Experimental: as §1

[7] = tested on: HCC1937
Experimental: as §1

[8] = tested on: HDQ-P1
Experimental: as §1

[9] = tested on: MDA-MB-468
Experimental: as §1

[10] = tested on: SK-BR-3
Experimental: as §1

[11] = tested on: BT-474; remark: listed apart in the source
Method in brief: (§2)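 Each entry is normalised viability at a single listed concentration within a series. It comes from breast cancer cell lines incubated 72 h with compound in 384-well plates, then measured with CellTiter-Blue fluorescence at 560/590 nm. Every plate was normalised between vehicle (100) and a positive kill control (0).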

[12] = tested on: BT-549; remark: listed apart in the source
Method in brief: as §2

[13] = tested on: CAL-120
Method in brief: as §2

[14] = tested on: CAL-51
Method in brief: as §2

[15] = tested on: CAL-85-1; remark: listed apart in the source
Method in brief: as §2

[16] = tested on: DU-4475; remark: listed apart in the source
Method in brief: as §2

[17] = tested on: HCC1143; remark: listed apart in the source
Method in brief: as §2

[18] = tested on: HCC1599
Method in brief: as §2

[19] = tested on: HCC1937; remark: listed apart in the source
Method in brief: as §2

[20] = tested on: HDQ-P1; remark: listed apart in the source
Method in brief: as §2

[21] = tested on: Hs578T
Method in brief: as §2

[22] = tested on: MDA-MB-231
Method in brief: as §2

[23] = tested on: MDA-MB-436
Method in brief: as §2

[24] = tested on: MDA-MB-453
Method in brief: as §2

[25] = tested on: MDA-MB-468; remark: listed apart in the source
Method in brief: as §2

[26] = tested on: MFM-223
Method in brief: as §2

[27] = tested on: SK-BR-3; remark: listed apart in the source
Method in brief: as §2

[28] = tested on: CAL-148; remark: listed apart in the source
Experimental: (§3)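 DSRT, CellTiter-Blue viability, 72 h incubation. Signal is normalised to DMSO and benzethonium chloride controls. Value is the normalised response at dose 6.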

[29] = tested on: CAL-51; remark: listed apart in the source
Experimental: as §3

[30] = tested on: CAL-85-1; remark: listed apart in the source
Experimental: as §3

[31] = tested on: DU-4475; remark: listed apart in the source
Experimental: as §3

[32] = tested on: HDQ-P1; remark: listed apart in the source
Experimental: as §3

[33] = tested on: MDA-MB-453; remark: listed apart in the source
Experimental: as §3

C[C@]12CC[C@H](O)CC1=CC[C@@H]1[C@@H]2CC[C@]2(C)C(c3cccnc3)=CC[C@@H]12 [Abiraterone]
normalised viability ([1]; 50 nM): 112%
normalised viability ([2]; 50 nM): 108%
normalised viability ([3]; 5 nM): 86.7%
normalised viability ([4]; 5 nM): 91.1%
normalised viability ([5]; 5 nM): 94%
normalised viability ([6]; 50 nM): 75.2%
normalised viability ([7]; 50 nM): 98.9%
normalised viability ([8]; 5 nM): 109%
normalised viability ([9]; 50 nM): 107%
normalised viability ([10]; 50 nM): 73.4%
normalised viability ([11]; 500 nM): 116%
normalised viability ([12]; 500 nM): 111%
normalised viability ([13]; 500 nM): 81.4%
normalised viability ([14]; 15 nM): 107%
normalised viability ([15]; 15 nM): 80.5%
normalised viability ([16]; 15 nM): 80.8%
normalised viability ([17]; 500 nM): 80.2%
normalised viability ([18]; 500 nM): 385%
normalised viability ([19]; 500 nM): 83%
normalised viability ([20]; 15 nM): 108%
normalised viability ([21]; 500 nM): 116%
normalised viability ([22]; 500 nM): 106%
normalised viability ([23]; 500 nM): 104%
normalised viability ([24]; 15 nM): 110%
normalised viability ([25]; 500 nM): 106%
normalised viability ([26]; 500 nM): 96.6%
normalised viability ([27]; 500 nM): 101%
normalised viability ([28]; 150 nM): 93.8%
normalised viability ([29]; 150 nM): 102%
normalised viability ([30]; 150 nM): 93.9%
normalised viability ([31]; 150 nM): 92.2%
normalised viability ([32]; 150 nM): 79.2%
normalised viability ([33]; 150 nM): 105%

CNNCc1ccc(C(=O)NC(C)C)cc1 [Procarbazine]
normalised viability ([1]; 100 nM): 114%
normalised viability ([2]; 100 nM): 111%
normalised viability ([3]; 10 nM): 98.1%
normalised viability ([4]; 10 nM): 97.8%
normalised viability ([5]; 10 nM): 112%
normalised viability ([6]; 100 nM): 98.7%
normalised viability ([7]; 100 nM): 85.3%
normalised viability ([8]; 10 nM): 128%
normalised viability ([9]; 100 nM): 102%
normalised viability ([10]; 100 nM): 92%
normalised viability ([11]; 1000 nM): 114%
normalised viability ([12]; 1000 nM): 98.8%
normalised viability ([13]; 1000 nM): 99%
normalised viability ([14]; 30 nM): 106%
normalised viability ([15]; 30 nM): 87.4%
normalised viability ([16]; 30 nM): 107%
normalised viability ([17]; 1000 nM): 105%
normalised viability ([18]; 1000 nM): 88.9%
normalised viability ([19]; 1000 nM): 77.8%
normalised viability ([20]; 30 nM): 103%
normalised viability ([21]; 1000 nM): 103%
normalised viability ([22]; 1000 nM): 119%
normalised viability ([23]; 1000 nM): 88.8%
normalised viability ([24]; 30 nM): 114%
normalised viability ([25]; 1000 nM): 124%
normalised viability ([26]; 1000 nM): 95.5%
normalised viability ([27]; 1000 nM): 113%
normalised viability ([28]; 300 nM): 101%
normalised viability ([29]; 300 nM): 105%
normalised viability ([30]; 300 nM): 100%
normalised viability ([31]; 300 nM): 83.2%
normalised viability ([32]; 300 nM): 97.5%
normalised viability ([33]; 300 nM): 101%

O=C1NC(=O)[C@@H](c2cn3c4c(cccc24)CCC3)[C@@H]1c1c[nH]c2ccccc12 [Tivantinib]
normalised viability ([1]; 10 nM): 109%
normalised viability ([2]; 10 nM): 111%
normalised viability ([3]; 1 nM): 107%
normalised viability ([4]; 1 nM): 105%
normalised viability ([5]; 1 nM): 97.8%
normalised viability ([6]; 10 nM): 87.8%
normalised viability ([7]; 10 nM): 101%
normalised viability ([8]; 1 nM): 109%
normalised viability ([9]; 10 nM): 104%
normalised viability ([10]; 10 nM): 77.3%
normalised viability ([11]; 100 nM): 106%
normalised viability ([12]; 100 nM): 96.5%
normalised viability ([13]; 100 nM): 79.8%
normalised viability ([14]; 3 nM): 104%
normalised viability ([15]; 3 nM): 95.7%
normalised viability ([16]; 3 nM): 89.2%
normalised viability ([17]; 100 nM): 93%
normalised viability ([18]; 100 nM): 95.7%
normalised viability ([19]; 100 nM): 64.6%
normalised viability ([20]; 3 nM): 120%
normalised viability ([21]; 100 nM): 114%
normalised viability ([22]; 100 nM): 105%
normalised viability ([23]; 100 nM): 56.6%
normalised viability ([24]; 3 nM): 108%
normalised viability ([25]; 100 nM): 103%
normalised viability ([26]; 100 nM): 87.2%
normalised viability ([27]; 100 nM): 99.9%
normalised viability ([28]; 30 nM): 104%
normalised viability ([29]; 30 nM): 104%
normalised viability ([30]; 30 nM): 95.8%
normalised viability ([31]; 30 nM): 87.3%
normalised viability ([32]; 30 nM): 55.3%
normalised viability ([33]; 30 nM): 107%

Cn1cncc1[C@@](N)(c1ccc(Cl)cc1)c1ccc2c(c1)c(-c1cccc(Cl)c1)cc(=O)n2C [Tipifarnib]
normalised viability ([1]; 100 nM): 102%
normalised viability ([2]; 100 nM): 95.3%
normalised viability ([3]; 10 nM): 83.2%
normalised viability ([4]; 10 nM): 85.3%
normalised viability ([5]; 10 nM): 92.8%
normalised viability ([6]; 100 nM): 61.6%
normalised viability ([7]; 100 nM): 64.9%
normalised viability ([8]; 10 nM): 89.7%
normalised viability ([9]; 100 nM): 96.7%
normalised viability ([10]; 100 nM): 57.8%
normalised viability ([11]; 1000 nM): 84.4%
normalised viability ([12]; 1000 nM): 75.8%
normalised viability ([13]; 1000 nM): 47.4%
normalised viability ([14]; 30 nM): 95.5%
normalised viability ([15]; 30 nM): 70.1%
normalised viability ([16]; 30 nM): 69.3%
normalised viability ([17]; 1000 nM): 59.1%
normalised viability ([18]; 1000 nM): 62.2%
normalised viability ([19]; 1000 nM): 43.6%
normalised viability ([20]; 30 nM): 68%
normalised viability ([21]; 1000 nM): 69.2%
normalised viability ([22]; 1000 nM): 61.4%
normalised viability ([23]; 1000 nM): 82.9%
normalised viability ([24]; 30 nM): 82.2%
normalised viability ([25]; 1000 nM): 95.5%
normalised viability ([26]; 1000 nM): 67.7%
normalised viability ([27]; 1000 nM): 66.1%
normalised viability ([28]; 300 nM): 44.9%
normalised viability ([29]; 300 nM): 60.2%
normalised viability ([30]; 300 nM): 64%
normalised viability ([31]; 300 nM): 43.9%
normalised viability ([32]; 300 nM): 52.5%
normalised viability ([33]; 300 nM): 77.2%

CC(C)(C#N)c1cc(Cn2cncn2)cc(C(C)(C)C#N)c1 [Anastrozole]
normalised viability ([1]; 100 nM): 101%
normalised viability ([2]; 100 nM): 95.7%
normalised viability ([3]; 10 nM): 86.8%
normalised viability ([4]; 10 nM): 90.7%
normalised viability ([5]; 10 nM): 98.6%
normalised viability ([6]; 100 nM): 100%
normalised viability ([7]; 100 nM): 93.1%
normalised viability ([8]; 10 nM): 99.2%
normalised viability ([9]; 100 nM): 107%
normalised viability ([10]; 100 nM): 77.3%
normalised viability ([11]; 1000 nM): 101%
normalised viability ([12]; 1000 nM): 99.1%
normalised viability ([13]; 1000 nM): 89.5%
normalised viability ([14]; 30 nM): 106%
normalised viability ([15]; 30 nM): 86.5%
normalised viability ([16]; 30 nM): 94.2%
normalised viability ([17]; 1000 nM): 83.5%
normalised viability ([18]; 1000 nM): 88.3%
normalised viability ([19]; 1000 nM): 95.4%
normalised viability ([20]; 30 nM): 89.2%
normalised viability ([21]; 1000 nM): 95.7%
normalised viability ([22]; 1000 nM): 80.4%
normalised viability ([23]; 1000 nM): 83.6%
normalised viability ([24]; 30 nM): 91%
normalised viability ([25]; 1000 nM): 101%
normalised viability ([26]; 1000 nM): 90.4%
normalised viability ([27]; 1000 nM): 98.7%
normalised viability ([28]; 300 nM): 96.1%
normalised viability ([29]; 300 nM): 102%
normalised viability ([30]; 300 nM): 93.2%
normalised viability ([31]; 300 nM): 83.5%
normalised viability ([32]; 300 nM): 78%
normalised viability ([33]; 300 nM): 84.1%
